Structures can show the parent of a compound that is named as a salt.
How the values were obtained:
[1] = system: leukotriene pathway in human whole blood (LTB4); test: Human whole blood assay (LTB4 levels after calcium ionophore A23187 stimulation); assay type: cell-based; details: Homo sapiens, human whole blood diluted 1:1, A23187 stimulation; Table 6 (additional runs); read-out: Human Whole Blood LTB4 IC50 1:1
Description: The ability of the compounds of the present invention to treat a FLAP-mediated disease and/or disorder, or associated symptoms or complications thereof, was determined using the following procedures. Binding assay data represent the average value obtained from two different assay plates, with samples run in duplicate on each plate. Human whole blood assay data represent a single replicate on an assay plate using whole blood from at least one healthy donor.
An in vitro cellular assay was performed using human whole blood collected in heparin-containing tubes, which was used to test the ability of compounds to modulate the leukotriene pathway in human whole blood. The blood was diluted 1:1 in RPMI medium, pre-incubated for 15 min at 37° Celsius with test compounds at various concentrations, and then stimulated with calcium ionophore, A23187 (7 μg/mL), for 30 min at 37° Celsius. The samples were then centrifuged and plasma was removed. The plasma was diluted in assay buffer and LTB4 levels were measured using a commercial kit (Enzo Life Sciences). The concentration of each compound that was required for half-maximal inhibition (modulation) of recombinant enzyme activity (IC50) was calculated by a 4-parameter equation using the program GraphPad Prism (GraphPad software).

[2] = biological target: human FLAP (Homo sapiens (Human), UniProt P20292); test: FLAP binding assay (HTRF format); details: human FLAP wild type, Table 6 (additional runs)
Sequence of human FLAP (P20292 whole entry): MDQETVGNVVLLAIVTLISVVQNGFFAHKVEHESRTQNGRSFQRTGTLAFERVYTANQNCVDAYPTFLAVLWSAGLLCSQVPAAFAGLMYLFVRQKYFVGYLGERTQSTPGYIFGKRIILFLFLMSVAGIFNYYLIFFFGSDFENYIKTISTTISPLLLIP
Procedure, shortened: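 Samples were run in duplicate on each of two plates and the plate results averaged. Read-out is the HTRF signal ratio.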

SMILES	IC50 [1] [nM]	Ki [2] [nM]
Nc1cnc(-c2ccc(-c3ccccc3-c3cnsc3)cc2F)cn1 [Example 873, 5-(3-Fluoro-2′-isothiazol-4-ylbiphenyl-4-yl)pyrazin-2-amine]	336	23.1
Nc1cnc(-c2ccc(-c3ccccc3-c3cnn(CCO)c3)cc2F)cn1 [Example 874]	359	51.1
N#CCn1cc(-c2ccccc2-c2ccc(-c3cnc(N)nc3)c(F)c2)cn1 [Example 875, {4-[4′-(2-Aminopyrimidin.-5-yl)-3′-fluorobiphenyl-2-yl]-1H-pyrazol-yl}acetonitrile]	851	170
Nc1cnc(-c2ccc(-c3ccccc3OCC3CCS(=O)(=O)CC3)cc2F)cn1 [Example 884, 5-{2′-[(1,1-Dioxidotetrahydro-2H-thiopyran-4-yl)methoxy]-3-fluorobiphenyl-4-yl}pyrazin-2-amine]	706	239
Nc1cnc(-c2ccc(-c3ccccc3OC3CCS(=O)(=O)CC3)cc2F)cn1 [Example 885, 5-{2′-[(1,1-Dioxidotetrahydro-2H-thiopyran-4-yl)oxy]-3-fluorobiphenyl-4-yl}pyrazin-2-amine]	1060	40.8
Nc1cnc(-c2ccc(-c3ccccc3OCc3ccc(C(=O)O)cc3)cc2F)cn1 [Example 886, 4-(([4′-(5-Aminopyrazin-2-yl)-3′-fluorobiphenyl-2-yl]oxy}methyl)benzoic acid]	> 1000	5.8
Nc1ncc(-c2ccc(-c3ccccc3OCc3ccc(C(=O)O)cc3)cc2F)cn1 [Example 887, 4-({[4′-(2-Aminopyrimidin-5-yl)-3′-fluorobiphenyl-2-yl]oxy}methyl)benzoic acid]	> 1000	30.4

Results, then the compound that gave them:

IC50 [1] [nM]	Ki [2] [nM]	SMILES
1080	80.3	Nc1ncc(-c2ccc(-c3ccccc3-c3cn[nH]c3)cc2F)cn1 [Example 876, 5-[3-Fluoro-2′-(1H-pyrazo-4-yl)biphenyl-4-yl]pyrimidin-2-amine]
10.5	4.7	C[C@H](NS(=O)(=O)c1ccccc1-c1cnc(-c2cnc(N)nc2)c(F)c1)C(F)(F)F [Example 877, 2-[6-(2-Aminopyrimidin-5-yl)-5-fluoropyridin-3-yl]-N-[(1S)-2,2,2-trifluoro-1-methylethyl]penzenesulfonamide as the hydrochloride salt]
320	276	Nc1ncc(-c2ncc(-c3ccccc3S(=O)(=O)C3CC3)cc2F)cn1 [Example 878, 5-{5-[2-(Cyclopropylsulfonyl)phenyl]-3-fluoropyridin-2-yl}pyrimidin-2-amine]
106	168	C[C@H](O)CNS(=O)(=O)c1ccccc1-c1cnc(-c2cnc(N)nc2)c(F)c1 [Example 879, 2-[6-(2-Aminopyrimidin-5-yl)-5-fluoropyridin-3-yl]-N-[(2S)-2-hydroxypropyl]benzenesulfonamide]
180	86.7	C[C@@H](CO)NS(=O)(=O)c1ccccc1-c1cnc(-c2cnc(N)nc2)c(F)c1 [Example 880, 2-[6-(2-Aminopyrimidin-5-yl)-5-fluoropyridin-3-yl]-N-[(1S)-2-hydroxy-1-methylethyl]benzenesulfonamide]
128	76	C[C@H](CO)NS(=O)(=O)c1ccccc1-c1cnc(-c2cnc(N)nc2)c(F)c1 [Example 881, 2-[6-(2-Aminopyrimidin-5-yl)-5-fluoropyridin-a-yl]-N-[(1R)-2-hydroxy-1-methylethyl]benzenesulfonamide]
68.8	167	Nc1ncc(-c2ncc(-c3ccccc3S(=O)(=O)NCCO)cc2F)cn1 [Example 882, 2-[6-(2-Aminopyrimidin-5-yl)-5-fluoropyridin-3-yl]-N-(2-hydroxyethyl)benzenesulfonamide]
69.5	34.2	C[C@@H](NS(=O)(=O)c1ccccc1-c1cnc(-c2cnc(N)nc2)c(F)c1)C(F)(F)F [Example 883, 2-[6-(2-Aminopyrimidin-5-yl)-5-fluoropyridin-3yl]-N-[(1R)-2,2,2-trifluoro-1-methylethyl]benzenesulfonamide]

— patent US9745328B2, “Flap modulators” (JANSSEN PHARMACEUTICA NV, priority 2013, dated 2017)
